The values below come from ChEMBL document CHEMBL1641557, “3-(Pyridin-2-yl-ethynyl)benzamide metabotropic glutamate receptor 5 negative allosteric modulators: hit to lead studies” (Bioorg Med Chem Lett, 2011).

A value given as a limit tells only on which side of the number the result lay.

A short description of data set [1]: Half life in rat liver microsomes. The class given is ADME, Microsome. A general note: Liver microsomes are a subcellular fraction often used to study metabolism.
A short description of data set [2]: Cmax in Beagle dog at 10 mg/kg, po. The class given is ADME, organism-based, Canis lupus familiaris. More on the design: dose 10 mg/kg, route oral. The note with it: in vivo.
Data set [3] is described as follows: Half life in Swiss Webster mouse at 2 mg/kg, iv. The data set is classed as ADME, organism-based. More on the design: dose 2 mg/kg, route intravenous. To be noted: in vivo.
The nature of data set [4]: Volume of distribution at steady state in Swiss Webster mouse at 2 mg/kg, iv. The data set is classed as ADME, organism-based. More on the design: dose 2 mg/kg, route intravenous. To be noted: in vivo, read-out: Vdss.
Data set [5] is described as follows: AUClast in Sprague-Dawley rat at 10 mg/kg, po. Also on record: time 0 - last, dose 10 mg/kg, route oral. To be noted: plasma. The data set is classed as ADME, organism-based.
A short description of data set [6]: Oral bioavailability in Swiss Webster mouse at 10 mg/kg. The class given is ADME, organism-based. To be noted: in vivo.
The nature of data set [7]: Volume of distribution at steady state in Beagle dog at 2 mg/kg, iv. The data set is classed as ADME, organism-based, Canis lupus familiaris. To be noted: in vivo, read-out: Vdss. More on the design: dose 2 mg/kg, route intravenous.
The nature of data set [8]: Clearance in Sprague-Dawley rat at 2 mg/kg, iv. To be noted: in vivo. The class given is ADME, organism-based. More on the design: dose 2 mg/kg, route intravenous.
The nature of data set [9]: Cmax in Sprague-Dawley brain rat at 10 mg/kg, po. The class given is ADME, organism-based. More on the design: dose 10 mg/kg, route oral.
Data set [10] in a line: AUClast in Beagle dog at 10 mg/kg, po. The data set is classed as ADME, organism-based, Canis lupus familiaris. More on the design: time 0 - last, dose 10 mg/kg, route oral. The note with it: plasma.
Data set [11] in a line: Clearance in Beagle dog at 2 mg/kg, iv. The data set is classed as ADME, organism-based, Canis lupus familiaris. Also on record: dose 2 mg/kg, route intravenous. To be noted: in vivo.
A short description of data set [12]: Oral bioavailability in Sprague-Dawley rat at 10 mg/kg. The class given is ADME, organism-based. The note with it: in vivo.
Data set [13] can be described thus: Ratio of drug level in brain to plasma in Swiss Webster mouse at 10 mg/kg, po. More on the design: dose 10 mg/kg, route oral. The data set is classed as ADME, organism-based.
The nature of data set [14]: Clearance in Swiss Webster mouse at 2 mg/kg, iv. To be noted: in vivo. The data set is classed as ADME, organism-based. More on the design: dose 2 mg/kg, route intravenous.
The nature of data set [15]: Cmax in Swiss Webster mouse at 10 mg/kg, po. The class given is ADME, organism-based. More on the design: dose 10 mg/kg, route oral. The note with it: in vivo.
A short description of data set [16]: Half life in Sprague-Dawley rat at 2 mg/kg, iv. The data set is classed as ADME, organism-based. More on the design: dose 2 mg/kg, route intravenous. The note with it: in vivo.
Data set [17] can be described thus: Oral bioavailability in Beagle dog at 10 mg/kg. The class given is ADME, organism-based, Canis lupus familiaris. The note with it: in vivo.
Data set [18] in a line: Cmax in Sprague-Dawley rat at 10 mg/kg, po. The data set is classed as ADME, organism-based. Also on record: dose 10 mg/kg, route oral. The note with it: in vivo.
The nature of data set [19]: Cmax in Swiss Webster mouse brain at 10 mg/kg, po. The class given is ADME, organism-based. More on the design: dose 10 mg/kg, route oral.
Data set [20] in a line: AUClast in Swiss Webster mouse at 10 mg/kg, po. Also on record: time 0 - last, dose 10 mg/kg, route oral. The class given is ADME, organism-based. The note with it: plasma.
Data set [21] in a line: Half life in Beagle dog at 2 mg/kg, iv. The class given is ADME, organism-based, Canis lupus familiaris. More on the design: dose 2 mg/kg, route intravenous. To be noted: in vivo.
Data set [22] is described as follows: Volume of distribution at steady state in Sprague-Dawley rat at 2 mg/kg, iv. To be noted: in vivo, read-out: Vdss. More on the design: dose 2 mg/kg, route intravenous. The data set is classed as ADME, organism-based.
Data set [23] in a line: Ratio of drug level in brain to plasma in Sprague-Dawley rat at 10 mg/kg, po. The class given is ADME, organism-based. More on the design: dose 10 mg/kg, route oral.

The compound `O=C(c1cccc(C#Cc2ccccc2)c1)N1CCN(c2ccccn2)CC1` returned a half-life in data set [1] of 3 min.
As for `COc1cccc(C#Cc2cccc(C(=O)N3CCN(c4ccccn4)CC3)c2)c1`, in data set [1], the half-life was 3 min.
Same read-out and setting: to `Nc1cccc(C#Cc2cccc(C(=O)N3CCN(c4ccccn4)CC3)c2)c1` belongs 2 min; to `COc1ccc(C#Cc2cccc(C(=O)N3CCN(c4ccccn4)CC3)c2)cc1`, 4 min.
Same read-out and setting: to `Cc1ccc(C#Cc2cccc(C(=O)N3CCN(c4ccccn4)CC3)c2)cc1` belongs 5 min; to `O=C(c1cccc(C#CCc2ccccc2)c1)N1CCN(c2ccccn2)CC1`, 4 min.
In data set [1], `O=C(c1cccc(C#Cc2ccccn2)c1)N1CCN(c2ccccn2)CC1` displayed a half-life of 5 min.
Same read-out and setting: to `O=C(c1cccc(C#Cc2ccccc2)c1)N1CCN(c2cnccn2)CC1` belongs 4 min; to `O=C(c1cccc(C#Cc2ccccc2)c1)N1CCN(c2ccncn2)CC1`, 3 min; to `Cc1ccc(N2CCN(C(=O)c3cccc(C#Cc4ccccc4)c3)CC2)nc1`, 13 min.
In [1], `COc1ccc(C(=O)N2CCN(c3ccccn3)CC2)cc1C#Cc1ccccc1` showed a half-life of 13 min.
On the same count and under the same terms, the value for `COc1ccc(C(=O)N2CCN(c3cnccn3)CC2)cc1C#Cc1ccccc1` was 5 min; that for `COc1ccc(C(=O)N2CCN(c3ccncn3)CC2)cc1C#Cc1ccccc1` was 21 min.
On the same count and under the same terms, the value for `COc1ccc(C(=O)N2CCN(c3ccc(C)cn3)CC2)cc1C#Cc1ccccc1` was 16 min.
The same measure, in the same setting: the value for `Cc1ccc(C(=O)N2CCN(c3ccccn3)CC2)cc1C#Cc1ccccc1` was 13 min; that for `Cc1ccc(C(=O)N2CCN(c3cnccn3)CC2)cc1C#Cc1ccccc1` was 9 min.
As for `COc1ccc(C(=O)N2CCN(c3ccncn3)CC2)cc1C#Cc1cccc(Cl)c1`, in [1], the half-life turned out to be 7 min.
Consider `COc1ccc(C(=O)N2CCN(c3ccccn3)CC2)cc1C#Cc1ccccn1`, for which the peak concentration (Cmax) in data set [2] is 16.4 µM; in data set [9], 1.79 µM; in [15] it was 3.5 µM; in [18], 11.9 µM; in [19], 1.09 µM. Besides, the half-life was 12 min in [3], 60 min in [16], 23 min in data set [1] and 126 min in data set [21]. In addition, the Vd in data set [4] was determined as 3.2 L/kg; in [7], 0.5 L/kg; in [22] it was 0.9 L/kg. The results for the AUC(0-t) in data set [5], in data set [10] and in [20] were 13400 ng·h/mL, 47100 ng·h/mL and 519 ng·h/mL, respectively. Moreover, the bioavailability in data set [6] came out at 20%; in data set [12], 85%; in data set [17] it was 80%. Further, the results for the clearance in data set [8], in data set [11] and in data set [14] were 12 mL/min/kg, 3 mL/min/kg and 121 mL/min/kg, respectively. The Kp in data set [13] was determined as 0.31; in data set [23] it was 0.15.
For the compound `COc1ccc(C(=O)N2CCN(c3ccncn3)CC2)cc1C#Cc1ccccn1`, the half-life in [1] was 18 min.
With `COc1ccc(C(=O)N2CCN(c3ccccn3)CC2)cc1C#Cc1cccc(C)n1`, the half-life in data set [1] turned out to be 11 min.
The same measure, in the same setting: to `COc1ccc(C(=O)N2CCN(c3ccccn3)CC2)cc1C#Cc1nccs1` belongs 15 min; to `COc1ccc(C(=O)N2CCN(c3ccc(C)cn3)CC2)cc1C#Cc1ccccn1`, above 30 min.

As usually defined, the half-life is the time needed for the level to fall by half in the phase considered. The low end stands for rapid decline, the high end for slow decline. A word on the Cmax: it is the highest concentration seen after dosing. What is called AUC(0-t) is exposure summed from dosing to a finite time, without extrapolation to infinity. Read a low AUC(0-t) as less exposure. What is called bioavailability is the share of a dose that reaches the circulation, judged against a reference dose that is usually intravenous. A higher bioavailability goes with much systemic uptake. For orientation: clearance means the volume of plasma or blood freed of the substance per unit of time. What is called Kp is the ratio of the level in a tissue or fluid to that in plasma or blood.
